Measurements: patent publication US20100303896A1, “5BETA, 14BETA-ANDROSTANE DERIVATIVES USEFUL FOR THE TREATMENT OF RESTENOSIS AFTER ANGIOPLASTIC OR ENDOARTHERECTOMY AND DISEASES DUE TO ORGAN FIBROSIS” (SIGMA-TAU INDUSTRIE FARMACEUTICHE RIUNITE S.P.A., priority 2007, published 2010)
Where “and” joins values, the source holds several entries; their conditions need not be identical. Identical values can stand only once. Entries after “also recorded” stand apart in the source; their conditions may differ.

Legend:
Format in all cases: in vivo, rat
[1] = tested on: MHS rats with CCl4-induced liver fibrosis; assay: CCl4-induced liver fibrosis: histopathology and qualitative fibrosis score on Syrius red stained slides; design: key to Liver fibrosis score, histological appearance (FIG. 8): 0: Absence of liver fibrosis, but normal staining pattern only; 1: Mild degree, corresponding to centrilobular/periportal fibrosis, with predominantly uncomplete septal expansion—mild focal interstitial fibrosis; 2: Moderate degree, corresponding to diffuse bridging fibrosis, with focal nodular appearance—multifocal interstitial fibrosis; 3: Severe degree, corresponding to confluent fibrosis, with diffuse nodular appearance—severe diffuse interstitial fibrosis
Text: (§1) To test the activity of the compound of the invention for the prevention and treatment of organ fibrosis, spontaneous hypertensive MHS rats with genetic arterial hypertension (Bianchi G., Barber B. R., Torielli L., Ferrari P. The Milan hypertensive strain of rats. Genetic Model of Hypertension. 1994; 22: 457-460) were used. MHS rats are available at Prassis Research Institute, Sigma-tau, Italy.
(§2) Liver fibrosis was induced by CCl4 oral administration as described in J. Hepatol. 1999; 30: 621-631, with minor modifications: 0.375 ml/kg of CCl4 dissolved in olive oil was administered three times per week for three weeks by oral gavage to rats starting from the 7th week after weaning. Control rats received only the vehicle (olive oil). Rostafuroxin treatment started 7 weeks before the induction of liver fibrosis by CCl4 administration (pretreatment) and was continued during the CCl4 treatment for three weeks. Rostafuroxin was orally administered at 1 mg/kg/day, suspended in Methocel (0.5%). A total of twenty four MHS rats of 25 days of age (weaning) were subdivided in three groups of 8 rats each: the first group, considered as negative control for liver fibrosis induction (Ctr.), was orally treated with the Rostafuroxin vehicle (Methocel 0.5%) along the entire period (10 weeks) and received the olive oil as vehicle of CCl4 at the 7th week after weaning for three weeks; the second group, considered as positive control for liver fibrosis (Ctr. LF), was orally treated with the Rostafuroxin vehicle (Methocel 0.5%) along the entire period (10 weeks) and received CCl4 at the 7th week after weaning for three weeks; the third group, Rostafuroxin treated with liver fibrosis (RLF), received Rostafuroxin at 1 mg/kg along the entire period (10 weeks) and received CCl4 at the 7th week after weaning for three weeks. At the end of the treatment (10th week), rats were weighed and anaesthetized with pentobarbital for blood sampling and organ removal. The blood was let clotted and serum separated after centrifugation and saved for measurement of serum albuminemia and transaminases (ALT and AST) on a Pentra 400 (ABX) Automatic Hematology Analyzer. Spleen and liver were removed and weighed. Samples of the liver median lobe were immediately frozen in liquid nitrogen and kept at −80° for further biochemical measurement of the 4-Hydroxiproline liver content, taken as an index of collagen deposition (Biochem. J. 1961; 80(1): 148-154). The rest of the liver was preserved in a 10% buffered formalin solution for the histological analysis.
For each case, the median and the left lobes of the liver were subjected to standard trimming and embedding procedures; slides were stained with Hematoxylin and Eosin (H&E) (Laboratory Methods in Histotechnology; Armed Forces Institute of Pathology Published by the American Registry of Pathology Washington, D.C. 1992). Special techniques were also applied in order to allow proper connective tissue detection (Masson's Trichrome stain—Laboratory Methods in Histotechnology; Armed Forces Institute of Pathology Published by the American Registry of Pathology Washington, D.C. 1992) as well as specific collagen detection and hepatic fibrosis evaluation (Syrius red staining method as described in The Journal of Histochemistry and Citochemistry 1985; vol 33, No. 8, pp. 737-743).
Liver fibrosis was qualitatively scored on Syrius red stained slides as follows:
0=Absence of liver fibrosis, but normal staining pattern only;
1=Mild degree, corresponding to centrilobular/periportal fibrosis, with predominantly uncomplete septal expansion—mild focal interstitial fibrosis;
2=Moderate degree, corresponding to diffuse bridging fibrosis, with focal nodular appearance—multifocal interstitial fibrosis;
3=Severe degree, corresponding to confluent fibrosis,
with diffuse nodular appearance—severe diffuse interstitial fibrosis. […]

[2] = tested on: MHS rats with CCl4-induced liver fibrosis; assay: CCl4-induced liver fibrosis: body and organ weights
Text: as §1, §2

[3] = tested on: MHS rats with CCl4-induced liver fibrosis; assay: CCl4-induced liver fibrosis: quantitative histomorphometric analysis of fibrotic area (Sirius Red, ImageJ)
Text: as §1
Liver fibrosis was induced by CCl4 oral administration as described in J. Hepatol. 1999; 30: 621-631, with minor modifications: 0.375 ml/kg of CCl4 dissolved in olive oil was administered three times per week for three weeks by oral gavage to rats starting from the 7th week after weaning. Control rats received only the vehicle (olive oil). Rostafuroxin treatment started 7 weeks before the induction of liver fibrosis by CCl4 administration (pretreatment) and was continued during the CCl4 treatment for three weeks. Rostafuroxin was orally administered at 1 mg/kg/day, suspended in Methocel (0.5%). […]
A quantitative analysis of the degree of fibrosis, following the histological qualitative analysis, was performed by digital imaging conversion of the histological pictures by a previously described method (J. Gastroenterol. 2004, Oct. 1; 10(19)2894-2897).
Briefly, after staining with Sirius Red, liver collagen content was measured by histomorphometric method. […] Each picture was analyzed by computer system ImageJ version 1.39 for digital image analysis. […] The fibrotic area with positive staining were automatically selected, outlined and evaluated. Relative content of collagen was calculated as a percentage of positive staining pixels on the total number of pixels of the picture.

[4] = tested on: spontaneous hypertensive MHS rats; assay: Prevention of restenosis after carotid surgical injury (endoartherectomy model), morphometry of the carotid lumen area
Text: as §1, with “prevention” for “prevention and treatment”, “restenosis after endoartherectomy,” for “organ fibrosis,”
After this period rats were subjected to the vascular surgical injury according to the protocol listed below. After surgical injury, rats were maintained under treatment either with vehicle or Rostafuroxin for further 30 days and then sacrificed for carotid artery sampling. […] The final number of rats used for the histological carotid analysis was; MHS vehicle=7, MHS Rostafuroxin=9.
(§3) The carotid surgical injury model used on MHS and MNS rat is described in J. Cell. Physiol. 2001; 186:307-313.
(§4) Briefly, a plastic Scanlon clamp for coronary artery bypass grafting was placed for 10 seconds on the carotid artery in order to cause a crushing lesion to vessel. At the same point where the clamp was applied, a 0.5 mm longitudinal incision was performed on the full thickness of the carotid artery. […] Hemostasis was obtained with a single adventitial 8.0-gauge polypropylene stitch. Once bleeding stopped, the carotid artery was carefully examined and blood pulsation was checked distally to the incision.
Carotid arteries were taken 30 days after injury. […]
(§5) For each injured carotid, at least 60 serial cross-sections were observed under a light microscope at 20× magnification; image screening and photography were performed using Leica IM 1000 System (Leica, Wetzlar, Germany). The sections of injured carotids showing maximal remodelling and proliferative phenomena were identified and further analyzed.
(§6) Lumen and medial areas were measured using the Leica IM 1000 software (Leica, Heerbrugg, Switzerland). […] For each contralateral uninjured carotid, at least 10 sections were analyzed and the average media and lumen areas were calculated. […]

[5] = tested on: MHS rats with CCl4-induced liver fibrosis; assay: CCl4-induced liver fibrosis: serum albuminemia and transaminases (ALT and AST)
Text: as §1, §2

[6] = tested on: MNS rats without arterial hypertension; assay: Prevention of restenosis after carotid surgical injury, morphometry of the carotid lumen area; settings: 100 μg/kg orally, carotid taken 30 days after injury
Protocol: as §3, §4
Carotid arteries were taken 30 days after injury. Rats were anaesthetized and carotids were dissected free from the surrounding tissues. […]
as §5, §6

[7] = tested on: MHS rats with CCl4-induced liver fibrosis; assay: CCl4-induced liver fibrosis: hydroxyproline liver content
Text: as §1
Liver fibrosis was induced by CCl4 oral administration as described in J. Hepatol. 1999; 30: 621-631, with minor modifications: 0.375 ml/kg of CCl4 dissolved in olive oil was administered three times per week for three weeks by oral gavage to rats starting from the 7th week after weaning. Control rats received only the vehicle (olive oil). Rostafuroxin treatment started 7 weeks before the induction of liver fibrosis by CCl4 administration (pretreatment) and was continued during the CCl4 treatment for three weeks. Rostafuroxin was orally administered at 1 mg/kg/day, suspended in Methocel (0.5%). A total of twenty four MHS rats of 25 days of age (weaning) were subdivided in three groups of 8 rats each: the first group, considered as negative control for liver fibrosis induction (Ctr.), was orally treated with the Rostafuroxin vehicle (Methocel 0.5%) along the entire period (10 weeks) and received the olive oil as vehicle of CCl4 at the 7th week after weaning for three weeks; the second group, considered as positive control for liver fibrosis (Ctr. LF), was orally treated with the Rostafuroxin vehicle (Methocel 0.5%) along the entire period (10 weeks) and received CCl4 at the 7th week after weaning for three weeks; the third group, Rostafuroxin treated with liver fibrosis (RLF), received Rostafuroxin at 1 mg/kg along the entire period (10 weeks) and received CCl4 at the 7th week after weaning for three weeks. […]
Hydroxyproline liver content was determined as described in Anal. Biochem. 1981; 112: 70-75, with slight modifications.
Liver tissue (0.4 g) was homogenized in 3 ml 6 N HCl and hydrolyzed at 110° C. for 24 h. […] After cooling, the absorbance was measured at 558 nm (Jasco V-530).

[8] = RLF group, 1 mg/kg os for 10 weeks + CCl4, individual rats, 1 mg/kg
[9] = rats with CCl4-induced liver fibrosis, 1 mg/kg os
[10] = rats with CCl4-induced liver fibrosis, vs Ctr. LF, statistically significant

C[C@]12CC[C@H](O)C[C@H]1CC[C@@H]1[C@@H]2CC[C@]2(C)[C@@](O)(c3ccoc3)CC[C@]12O [Rostafuroxin, 17 beta-(3-Furyl)-5 beta-androstane-3beta, 14 beta, 17 alpha-triol]
Extension of liver tissue damage (histopathology) ([1]; CCl4-treated rats, 1 mg/kg os, compared with Ctr. LF group, 1 mg/kg): minor extension of tissue damage; also recorded: less extended tissue damage
Liver fibrosis Absence (score 0), % of rats ([1]; RLF group, 1 mg/kg OS + CCl4): 0%
Liver fibrosis Absence (score 0), No. of rats ([1]; RLF group, 1 mg/kg OS + CCl4): 0/8
Liver fibrosis Mild (score 1), % of rats ([1]; RLF group, 1 mg/kg OS + CCl4): 75%
Liver fibrosis Mild (score 1), No. of rats ([1]; RLF group, 1 mg/kg OS + CCl4): 6/8
Liver fibrosis Moderate (score 2), % of rats ([1]; RLF group, 1 mg/kg OS + CCl4): 25%
Liver fibrosis Moderate (score 2), No. of rats ([1]; RLF group, 1 mg/kg OS + CCl4): 2/8
Liver fibrosis Severe (score 3), % of rats ([1]; RLF group, 1 mg/kg OS + CCl4): 0%
Liver fibrosis Severe (score 3), No. of rats ([1]; RLF group, 1 mg/kg OS + CCl4, 1 mg/kg): no rats and 0/8
Liver fibrosis score, histological appearance (FIG. 8) ([1]; liver from two CCl4 rats treated at 1 mg/kg os (RLF group)): 1
Spleen/bw, mean ([2]; RLF group, 1 mg/kg os for 10 weeks + CCl4, group mean (n=8), Ctr. LF mean 0.355): 0.284%
Spleen/bw [2, 8]: 0.251% and 0.316% and 0.261% and 0.262% and 0.247% and 0.302% and 0.348% and 0.288%
Weight of the liver [2, 9]: not modified
Reduction of spleen weight [2, 10]: 20%
% FIBROTIC AREA, mean ([3]; RLF group, 1 mg/kg os for 10 weeks + CCl4, group mean (n=8), Ctr. LF mean 10.48): 5.50%
% FIBROTIC AREA [3, 8]: 4.64% and 5.50% and 1.44% and 6.63% and 6.89% and 5.08% and 11.80% and 2.01%
Reduction of liver fibrotic area [3, 10]: 47.5%
Change in arterial restenosis vs vehicle ([4]; MHS rats with arterial hypertension, vs vehicle, statistically significant): −45%
Carotid lumen area, Injured/Uninjured carotid ratio, mean ([4]; MHS rats, 100 μg/kg orally, carotid taken 30 days after injury, group mean (n=9), vehicle mean 0.379): 0.680
Carotid lumen area, Injured/Uninjured carotid ratio ([4]; MHS rats, 100 μg/kg orally, carotid taken 30 days after injury, individual animals): 0.86 and 0.83 and 0.81 and 0.66 and 0.54 and 0.36 and 0.25 and 0.90 and 0.89
Albumin, mean ([5]; RLF group, 1 mg/kg os for 10 weeks + CCl4, group mean (n=8), Ctr. LF mean 3.02): 3.53 g/dL
Albumin [5, 8]: 3.65 g/dL and 3.36 g/dL and 4.15 g/dL and 2.95 g/dL and 3.19 g/dL and 3.07 g/dL and 3.82 g/dL and 4.04 g/dL
Transaminases (ALT and AST) [5, 9]: not modified
Increase of plasma levels of albumin [5, 10]: 16.8%
Carotid lumen area, Injured/Uninjured carotid ratio, mean ([6]; group mean (n=10), vehicle mean 0.540): 0.765
Carotid lumen area, Injured/Uninjured carotid ratio ([6]; individual animals): 0.93 and 0.83 and 0.80 and 0.76 and 0.75 and 0.68 and 0.59 and 0.36 and 1.00 and 0.95
Liver hydroxyproline, mean ([7]; RLF group, 1 mg/kg os for 10 weeks + CCl4, group mean (n=8), Ctr. LF mean 1596.45): 1184.9 μg/g prot
Liver hydroxyproline [7, 8]: 886.5 μg/g prot and 791.6 μg/g prot and 1217.4 μg/g prot and 811.0 μg/g prot and 799.8 μg/g prot and 2762.3 μg/g prot and 750.0 μg/g prot and 1460.7 μg/g prot
Reduction of liver content of hydroxyproline ([7]; rats with CCl4-induced liver fibrosis, vs Ctr. LF): 25.8%
